Laboratory results taken from patent publication US7803818B2, “Amorphous form of 1,2-dihydropyridine compound” (Eisai R&D Management Co., Ltd., priority 2005, dated 2010).

Tests used:
[1] = Solubility in JP2 fluid after shaking 5 minutes (shake flask method); type: physicochemical; conditions: for Concentration (solubility in JP2 fluid after shaking 5 minutes): JP2 fluid pH 6.8, about 5 mg in 5 mL, shaking 5 minutes at room temperature, filtration, HPLC
Experimental: Measurement of Solubility in JP2 Fluid after Shaking 5 minutes (Shake Flask Method)
Sample solutions were prepared by placing each sample (about 5 mg) in test tube, adding 5 mL of “2nd fluid” as described in General Tests (disintegration test) of Japanese Pharmacopeia (JP2 fluid: pH 6.8), and shaking 5 minutes at room temperature, followed by filtration. These sample solutions were analyzed using high performance liquid chromatography (HPLC), and calculated the concentration.
HPLC System: LC-10AT System (from Shimadzu Corporation)
Detector: ultraviolet absorptiometer (wavelength: 290 nm)
Column: YMC Pack Pro C18, 4.6 mm I.D.×150 mm (from YMC, Japan)
Column temperature: 35° C.
Auto sampler temperature: 25° C.
A: water/acetonitrile/ammonium acetate (900:100:1, v/v/w)
B: water/acetonitrile/ammonium acetate (100:900:1, v/v/w)
(Isocratic Condition: B Concentration=40%)

AMPA receptor = conditions: see Patent Document 1 (WO/JP01/96308); cited from earlier work

Structure (SMILES)	solubility in a solution such as JP2 fluid ([1]; JP2 fluid (2nd fluid of Disintegration Test, Japanese pharmacopoeia))	Concentration (solubility in JP2 fluid after shaking 5 minutes) [1]	antagonistic action against AMPA receptor (AMPA receptor)
N#Cc1ccccc1-c1cc(-c2ccccn2)cn(-c2ccccc2)c1=O [Example 1]	excellent solubility	12.5 µg/mL	–
N#Cc1ccccc1-c1cc(-c2ccccn2)cn(-c2ccccc2)c1=O [Reference Example 1, 3-(2-cyanophenyl)-5-(2-pyridyl)-1-phenyl-1,2-dihydropyridin-2-one, reference compound]	–	4.8 µg/mL	–
N#Cc1ccccc1-c1cc(-c2ccccn2)cn(-c2ccccc2)c1=O [compound (1), 3-(2-cyanophenyl)-5-(2-pyridyl)-1-phenyl-1,2-dihydropyridin-2-one]	–	–	significant antagonistic action
